# Measured values: patent US20140017223A1, “Pharmaceutical Compositions Comprising A Pancreatic Enzyme Preparation With Viral Infectivity Reduced Below A Significant Level And Methods Of Preparing And Using The Same” (Aptalis Pharma Canada Inc., priority 2010, published 2014)
# System: PPV
# Experiment: Inactivation of spiked PPV in pancrelipase (PEP) by BPL, PPV titered by dilution method (Example 1)
# Type: cell-based, porcine parvovirus (PPV)
# Details: 48 h, 20° C.; for Detected PPV Titer: 0*=below detection limit of 10^3 FFID50/g
# Description: For example, two preparations can be tested for PPV or another virus on one 96-well plate, with the positive controls incubated on another parallel plate. For PPV the samples can be serially diluted (for example, 1:4 in each step for a total of 8 dilutions) in cell culture medium prior to application and incubated with cell cultures for at least 5 days at 37° C. in 5% CO2. After sample removal and the fixation of the cells by paraformaldehyde, the presence of PPV (or other) virus infection is monitored in each well by an anti-PPV antibody using a standard immunofluorescent assay. The number of wells that contain positively stained cells are recorded in a table. Fluorescence Focus Infectious Doses (FFID50) are calculated according to the Karber formula: […]
# All data are recalculated for 1-gram dry PEP, e.g., pancrelipase, sample after the consideration of processed sample volumes and dilutions. In certain embodiments, the assay is repeated several times using six parallel wells to quantify the level of infectious viruses.
# Pancrelipase powders from 2 different lots were each dissolved in 100 mM Tris, pH=8.3, at a concentration of 100 mg/ml. Two ml non-purified PPV viral stock (prepared using standard protocols (Arella et al., Physicichemical properties, production, and purification of parvoviruses. 1990, In Tijssen, P. (ed.), CRC handbook of parvoviruses. Boca Raton, Fla.: CRC Press, 11-30)) were added to 38 ml of the pancrelipase solution. The virus was mixed with the PEP using slow shaking at room temperature for one day. Aliquots were taken from the PPV-spiked pancrelipase stocks and each was incubated with different concentrations of BPL (available from Sigma-Aldrich, St. Louis, Mo.) (except the control) for 48 hours at room temperature (20° C.). The level of viral inactivation was measured by the titration of PPV infectivity using serial dilutions of 1,000 times or more since the titer of spiked virus was high. Determination of the FFID50 was performed using the fluorescence assay as described in the PPV FFID-infectivity assay of U.S. Patent Publication No. 2009/0226414.
smiles,measurement,setting,value
"O=C1CCO1 [BPL, Beta-propiolactone]",PPV Titer reduction,"PEP #1, 0.1% (v/v) BPL",2.37 × 10^3 FFID50/g
same,Detected PPV Titer,"PEP #1, 0.1% (v/v) BPL",4.22 × 10^4 FFID50/g
same,PPV Titer reduction,"PEP #1, 0.2% (v/v) BPL",>10^5 FFID50/g
same,Detected PPV Titer,"PEP #1, 0.2% (v/v) BPL",< 0* FFID50/g
same,PPV Titer reduction,"PEP #1, 0.4% (v/v) BPL",>10^5 FFID50/g
same,Detected PPV Titer,"PEP #1, 0.4% (v/v) BPL",< 0* FFID50/g
same,PPV Titer reduction,"PEP #1, 0.8% (v/v) BPL",>10^5 FFID50/g
same,Detected PPV Titer,"PEP #1, 0.8% (v/v) BPL",< 0* FFID50/g
same,PPV Titer reduction,"PEP #2, 0.1% (v/v) BPL",2.37 × 10^3 FFID50/g
same,Detected PPV Titer,"PEP #2, 0.1% (v/v) BPL",4.22 × 10^4 FFID50/g
same,PPV Titer reduction,"PEP #2, 0.2% (v/v) BPL",>10^5 FFID50/g
same,Detected PPV Titer,"PEP #2, 0.2% (v/v) BPL",< 0* FFID50/g
same,PPV Titer reduction,"PEP #2, 0.4% (v/v) BPL",>10^5 FFID50/g
same,Detected PPV Titer,"PEP #2, 0.4% (v/v) BPL",< 0* FFID50/g
same,PPV Titer reduction,"PEP #2, 0.8% (v/v) BPL",>10^5 FFID50/g
same,Detected PPV Titer,"PEP #2, 0.8% (v/v) BPL",< 0* FFID50/g
same,PPV Titer reduction,"PEP #3, 0.1% (v/v) BPL",4.22 × 10^3 FFID50/g
same,Detected PPV Titer,"PEP #3, 0.1% (v/v) BPL",5.62 × 10^4 FFID50/g
same,PPV Titer reduction,"PEP #3, 0.2% (v/v) BPL",>10^5 FFID50/g
same,Detected PPV Titer,"PEP #3, 0.2% (v/v) BPL",< 0* FFID50/g
same,PPV Titer reduction,"PEP #3, 0.4% (v/v) BPL",>10^5 FFID50/g
same,Detected PPV Titer,"PEP #3, 0.4% (v/v) BPL",< 0* FFID50/g
same,PPV Titer reduction,"PEP #3, 0.8% (v/v) BPL",>10^5 FFID50/g
same,Detected PPV Titer,"PEP #3, 0.8% (v/v) BPL",< 0* FFID50/g
same,PPV Titer reduction,"PEP #4, 0.1% (v/v) BPL",1.33 × 10^8 FFID50/g
same,Detected PPV Titer,"PEP #4, 0.1% (v/v) BPL",< 0* FFID50/g
same,PPV Titer reduction,"PEP #4, 0.2% (v/v) BPL",>10^5 FFID50/g
same,Detected PPV Titer,"PEP #4, 0.2% (v/v) BPL",< 0* FFID50/g
same,PPV Titer reduction,"PEP #4, 0.4% (v/v) BPL",>10^5 FFID50/g
same,Detected PPV Titer,"PEP #4, 0.4% (v/v) BPL",< 0* FFID50/g
same,PPV Titer reduction,"PEP #4, 0.8% (v/v) BPL",>10^5 FFID50/g
same,Detected PPV Titer,"PEP #4, 0.8% (v/v) BPL",< 0* FFID50/g
